In publication PMC10419174, “WR1065 conjugated to thiol-PEG polymers as novel anticancer prodrugs: broad spectrum efficacy, synergism, and drug resistance reversal” (Frontiers in Oncology, 2023):
Several values for one entry are separate records, joined by “and”; a condition that tells them apart may be missing. Identical values can stand only once. Like-named read-outs stand apart in the source and are kept apart here.

Key:
[1] = system: Malignant pleural mesothelioma HMESO1 cells; conditions: for Fold increase in efficacy: drug alone ÷ drug in 4SP65-DDP combination
Experimental: (§1) The percentage of growth inhibition was calculated as follows: […]

[2] = system: Promyelocytic HL-60 leukemia cells; assay type: cell-based
Experimental: as §1

[3] = system: Malignant pleural mesothelioma PPMMill cells; experiment: cells; conditions: for Fold increase in efficacy: drug alone ÷ drug in 4SP65-DDP combination
Experimental: as §1

Pancreas PANC-1 cells = experiment: cells
Experimental: as §1

[4] = Prodrug stability in culture medium with alamarBlue, cell free, 72 h; assay type: in vitro ADME; conditions: standard growth medium, 37°C
Experimental: To determine drug stability in tissue culture medium for short-term treatments, 4SP65 was added to medium containing alamarBlue reagent in 96-well plates and incubated in the absence of cells at 37°C for 72 h. After this incubation period, wells with medium containing alamarBlue alone or both alamarBlue and 4SP65 were assessed for fluorescence readings using a Tecan Infinite 200 PRO plate reader (San Jose, CA, USA).

[5] = 48-h treatment, amifostine ND = not definable up to 500 µM
[6] = drug alone, 48 h, 4SP65/cisplatin study
[7] = drug alone, 48 h, 4SP65/cisplatin study, ND = not definable, highest concentration in parentheses

Substance: 4-star-PEG-S-S-WR1065 [4SP65]
- GI50 [1, 5]: 1.3 ± 0.4 µM
- IC50 [1, 5]: 2.9 ± 1 µM
- LC99 [1, 5]: 7.9 ± 2.6 µM
- TGI [1, 5]: 2.9 ± 0.8 µM
- Fold increase in efficacy ([1]; at GI50): 1.5 (NS) fold
- Fold increase in efficacy ([1]; at IC50): 1.1 (NS) fold
- Fold increase in efficacy ([1]; at LC50, GoE = gain of effect): 1.0 (NS) fold
- Fold increase in efficacy ([1]; at LC99, GoE = gain of effect): 1.1 (NS) fold
- Fold increase in efficacy ([1]; at TGI): 1.3 (NS) fold
- GI50 [1, 6]: 2 ± 0.3 µM
- IC50 [1, 6]: 4.7 ± 0.2 µM
- TGI [1, 6]: 4.3 ± 0.2 µM
- LC99 [1, 7]: 12.4 ± 0.1 µM
- CC50 [2]: 7.5 ± 2.1 µM
- GI50 ([2]; 48-h treatment): 1.9 ± 0.6 µM
- IC50 ([2]; 48-h treatment): 4.4 ± 0.9 µM
- LC99 ([2]; 48-h treatment): 10.2 ± 3.4 µM
- TGI ([2]; 48-h treatment): 4.7 ± 0.7 µM and 4.7 µM
- GI50 [3, 5]: 6 ± 1.7 µM
- IC50 [3, 5]: 7.4 ± 2 µM
- LC99 [3, 5]: 14.8 ± 2.9 µM
- TGI [3, 5]: 10.6 ± 3.0 µM
- Fold increase in efficacy ([3]; at GI50): 1.3 (NS) fold
- Fold increase in efficacy ([3]; at IC50): 1.3 (NS) fold
- Fold increase in efficacy ([3]; at LC50, GoE = gain of effect): 1.3 (NS) fold
- Fold increase in efficacy ([3]; at LC99, GoE = gain of effect): 1.3 (NS) fold
- Fold increase in efficacy ([3]; at TGI, GoE = gain of effect): 1.3 (NS) fold
- GI50 [3, 6]: 8.4 ± 1.5 µM
- IC50 [3, 6]: 10 ± 1.9 µM
- LC99 [3, 7]: 17.6 ± 3.5 µM
- TGI [3, 7]: 14.1 ± 3.3 µM
- CC50 (Pancreas PANC-1 cells): 5 ± 0.3 µM
- GI50 (Pancreas PANC-1 cells; [5]): 2.8 ± 0.6 µM
- IC50 (Pancreas PANC-1 cells; [5]): 3.7 ± 0.6 µM
- LC99 (Pancreas PANC-1 cells; [5]): 7.0 ± 0.5 µM
- TGI (Pancreas PANC-1 cells; [5]): 4.0 ± 0.4 µM
- Dose reduction value AMF ÷ 4SP65 (Pancreas PANC-1 cells; at GI50): 39 fold
- change in fluorescence of alamarBlue reagent versus control wells [4]: no significant change
